Experimental data reported in paper PMC7719179, “Small molecule inhibition of Dynamin-dependent endocytosis targets multiple niche signals and impairs leukemia stem cells” (Nature Communications, 2020).
Several values for one entry are separate records, joined by “and”; a condition that tells them apart may be missing. Equal values may be shown once.

Assays:
[1] = test system: IL-3R, GM-CSFR and KIT internalization in patient-derived AML cells; experiment: Surface expression of IL-3R, GM-CSFR and KIT in patient-derived AML cells; type: cell-based, human; settings: for GM-CSFR FOLD / IL-3R FOLD / KIT FOLD: relative expression vs Unstimulated; as to GM-CSFR MFI: test concentration or dose not given here; as to IL-3R MFI: test concentration or dose not given here; as to KIT MFI: test concentration or dose not given here
[2] = test system: pre-leukemic clones in DN3a cells; experiment: Tcrβ gene rearrangement (clonality) in DN3a thymocytes of treated Lmo2^Tg mice; type: in vivo, mouse
Method: page 8: Supplementary Figure 4. […] therapy (VXL) or combination therapy was administered. Mean ± SEM, 2 -way ANOVA with Tukey’s […] poly-clonal Tcrβ gene rearrangements (pie charts) in these purified thymocytes (n = 5).

[3] = test system: pSTAT5 in patient-derived ETP-ALL and T-ALL cells; experiment: IL-7-induced pSTAT5 in human ETP-ALL and T-ALL xenograft cells; type: cell-based; settings: for pSTAT5 relative expression, FOLD: fold over unstimulated
Method: Splenocytes from secondary xenografts were processed as previously described. […] Flow cytometric analysis of surface IL-7R levels and intracellular levels of pSTAT5 were performed as described in the FACS analysis section. For activation of NOTCH1-mediated signalling, 5 × 10^5 rested leukemia cells were seeded on OP9-DL1 stromal cells. Co-culture on OP9 stromal cells was used as a negative control. After 16 h of co-culture, leukemia cells were washed twice using cold PBS 1×. Flow cytometric analysis of NOTCH1 expression and intracellular levels of HES1 were performed as described in the FACS analysis section.

CCCCCCCCNC(=O)C(C#N)=Cc1cn(CCCN(C)C)c2ccccc12 [Dynole 34-2, 2-Cyano-N-octyl-3-(1-(3-dimethylaminopropyl)-1H-indol-3-yl)-acrylamide]
GM-CSFR MFI ([1]; AML01-021): 11447 MFI
IL-3R MFI ([1]; AML01-021): 745 MFI
KIT MFI ([1]; AML01-021): 1568 MFI
GM-CSFR FOLD ([1]; AML01-021): 1.03
IL-3R FOLD ([1]; AML01-021): 1.00
KIT FOLD ([1]; AML01-021): 0.89
GM-CSFR MFI ([1]; AML01-050): 15894 MFI
IL-3R MFI ([1]; AML01-050): 4010 MFI
KIT MFI ([1]; AML01-050): 273 MFI
GM-CSFR FOLD ([1]; AML01-050): 1.01
IL-3R FOLD ([1]; AML01-050): 1.14
KIT FOLD ([1]; AML01-050): 1.25
GM-CSFR MFI ([1]; AML01-072): 971 MFI
IL-3R MFI ([1]; AML01-072): 7383 MFI
KIT MFI ([1]; AML01-072): 1318 MFI
GM-CSFR FOLD ([1]; AML01-072): 1.12
IL-3R FOLD ([1]; AML01-072): 1.05
KIT FOLD ([1]; AML01-072): 1.74
GM-CSFR MFI ([1]; AML01-226): 10157 MFI
IL-3R MFI ([1]; AML01-226): 983 MFI
KIT MFI ([1]; AML01-226): 612 MFI
GM-CSFR FOLD ([1]; AML01-226): 1.05
IL-3R FOLD ([1]; AML01-226): 0.99
KIT FOLD ([1]; AML01-226): 0.58
GM-CSFR MFI ([1]; AML01-307): 649 MFI
IL-3R MFI ([1]; AML01-307): 4023 MFI
KIT MFI ([1]; AML01-307): 5991 MFI
GM-CSFR FOLD ([1]; AML01-307): 1.01
IL-3R FOLD ([1]; AML01-307): 0.94
KIT FOLD ([1]; AML01-307): 0.93
GM-CSFR MFI ([1]; AML02-078): 13405 MFI
IL-3R MFI ([1]; AML02-078): 4410 MFI
KIT MFI ([1]; AML02-078): 1516 MFI
GM-CSFR FOLD ([1]; AML02-078): 1.27
IL-3R FOLD ([1]; AML02-078): 1.17
KIT FOLD ([1]; AML02-078): 0.91
GM-CSFR MFI ([1]; AML02-123): 1180 MFI
IL-3R MFI ([1]; AML02-123): 2544 MFI
KIT MFI ([1]; AML02-123): 34855 MFI
GM-CSFR FOLD ([1]; AML02-123): 1.42
IL-3R FOLD ([1]; AML02-123): 1.10
KIT FOLD ([1]; AML02-123): 0.82
GM-CSFR MFI ([1]; AML02-232): 16645 MFI
IL-3R MFI ([1]; AML02-232): 506 MFI
KIT MFI ([1]; AML02-232): 357 MFI
GM-CSFR FOLD ([1]; AML02-232): 1.09
IL-3R FOLD ([1]; AML02-232): 1.00
KIT FOLD ([1]; AML02-232): 0.82
GM-CSFR MFI ([1]; AML03-330): 10769 MFI
IL-3R MFI ([1]; AML03-330): 356 MFI
KIT MFI ([1]; AML03-330): 372 MFI
GM-CSFR FOLD ([1]; AML03-330): 1.12
IL-3R FOLD ([1]; AML03-330): 0.98
KIT FOLD ([1]; AML03-330): 0.79
GM-CSFR MFI ([1]; AML03-331): 9530 MFI
IL-3R MFI ([1]; AML03-331): 798 MFI
KIT MFI ([1]; AML03-331): 1709 MFI
GM-CSFR FOLD ([1]; AML03-331): 0.88
IL-3R FOLD ([1]; AML03-331): 1.00
KIT FOLD ([1]; AML03-331): 0.98
GM-CSFR MFI ([1]; AML4): 853 MFI
IL-3R MFI ([1]; AML4): 1014 MFI
KIT MFI ([1]; AML4): 5020 MFI
GM-CSFR FOLD ([1]; AML4): 1.48
IL-3R FOLD ([1]; AML4): 0.99
KIT FOLD ([1]; AML4): 0.98
GM-CSFR MFI ([1]; AML16): 4656 MFI
IL-3R MFI ([1]; AML16): 827 MFI
KIT MFI ([1]; AML16): 6207 MFI
GM-CSFR FOLD ([1]; AML16): 0.80
IL-3R FOLD ([1]; AML16): 0.78
KIT FOLD ([1]; AML16): 0.87
GM-CSFR MFI ([1]; AML17): 9268 MFI
IL-3R MFI ([1]; AML17): 6591 MFI
KIT MFI ([1]; AML17): 21009 MFI
GM-CSFR FOLD ([1]; AML17): 1.01
IL-3R FOLD ([1]; AML17): 1.12
KIT FOLD ([1]; AML17): 1.17
GM-CSFR MFI ([1]; AML18): 13295 MFI
IL-3R MFI ([1]; AML18): 2046 MFI
KIT MFI ([1]; AML18): 1285 MFI
GM-CSFR FOLD ([1]; AML18): 1.08
IL-3R FOLD ([1]; AML18): 1.00
KIT FOLD ([1]; AML18): 1.36
GM-CSFR MFI ([1]; AML34): 3573 MFI
IL-3R MFI ([1]; AML34): 397 MFI
KIT MFI ([1]; AML34): 4661 MFI
GM-CSFR FOLD ([1]; AML34): 1.00
IL-3R FOLD ([1]; AML34): 0.99
KIT FOLD ([1]; AML34): 1.07
GM-CSFR MFI ([1]; AML54): 1872 MFI
IL-3R MFI ([1]; AML54): 508 MFI
KIT MFI ([1]; AML54): 10397 MFI
GM-CSFR FOLD ([1]; AML54): 1.08
IL-3R FOLD ([1]; AML54): 0.86
KIT FOLD ([1]; AML54): 0.90
internalization of IL-3R and GM-CSFR ([1]; patient-derived AML cells stimulated with IL-3 and GM-CSF, result in words): prevented the internalization
Clonality (%) for each sample: Oligoclonal ([2]; mouse, in vivo): 100% and 50%
clonality of DN3a cells by Tcrβ rearrangement ([2]; treated Lmo2^Tg mice, result in words): reduced monoclonality
pSTAT5 relative expression, MFI ([3]; ALL8): 3715 MFI and 3714 MFI
pSTAT5 relative expression, FOLD ([3]; ALL8): 1.22 FOLD
pSTAT5 relative expression, MFI ([3]; ALL16): 2090 MFI and 2194 MFI
pSTAT5 relative expression, FOLD ([3]; ALL16): 0.95 FOLD and 0.91 FOLD
pSTAT5 relative expression, MFI ([3]; ALL29): 3568 MFI and 3339 MFI
pSTAT5 relative expression, FOLD ([3]; ALL29): 1.36 FOLD and 1.45 FOLD
pSTAT5 relative expression, MFI ([3]; ALL31): 2246 MFI and 2071 MFI
pSTAT5 relative expression, FOLD ([3]; ALL31): 1.23 FOLD and 1.34 FOLD
pSTAT5 relative expression, MFI ([3]; ALL33): 2163 MFI and 2294 MFI
pSTAT5 relative expression, FOLD ([3]; ALL33): 1.35 FOLD and 1.27 FOLD
pSTAT5 relative expression, MFI ([3]; ETP1): 6780 MFI and 6557 MFI
pSTAT5 relative expression, FOLD ([3]; ETP1): 2.05 FOLD and 2.11 FOLD
pSTAT5 relative expression, MFI ([3]; ETP5): 3059 MFI and 3334 MFI
pSTAT5 relative expression, FOLD ([3]; ETP5): 1.58 FOLD and 1.45 FOLD
pSTAT5 relative expression, MFI ([3]; ETP8): 6837 MFI and 6719 MFI
pSTAT5 relative expression, FOLD ([3]; ETP8): 2.21 FOLD and 2.25 FOLD
pSTAT5 relative expression, MFI ([3]; ETP12): 6017 MFI and 6210 MFI
pSTAT5 relative expression, FOLD ([3]; ETP12): 2.47 FOLD and 2.39 FOLD
pSTAT5 relative expression, MFI ([3]; ETP13): 7147 MFI and 4013 MFI
pSTAT5 relative expression, FOLD ([3]; ETP13): 0.99 FOLD and 1.76 FOLD
pSTAT5 relative expression, MFI ([3]; ETP14): 7024 MFI and 6660 MFI
pSTAT5 relative expression, FOLD ([3]; ETP14): 1.46 FOLD and 1.54 FOLD
pSTAT5 protein levels ([3]; immature and mature subtypes of human T-ALL, 1 h pre-treatment, result in words): significantly decreased
